Assay results as given in ChEMBL document CHEMBL1134061, “Synthesis and biological evaluations of condensed pyridine and condensed pyrimidine-based HMG-CoA reductase inhibitors” (Bioorg Med Chem Lett, 2001).

Assays:
[1] = biological target: T1, 3-hydroxy-3-methylglutaryl-coenzyme A reductase (Rattus norvegicus) (UniProt P51639); test: In vitro rat HMG-CoA reductase inhibitory activity required to inhibit sterol synthesis in cell free system with pravastatin as reference compound
T1 sequence (whole entry): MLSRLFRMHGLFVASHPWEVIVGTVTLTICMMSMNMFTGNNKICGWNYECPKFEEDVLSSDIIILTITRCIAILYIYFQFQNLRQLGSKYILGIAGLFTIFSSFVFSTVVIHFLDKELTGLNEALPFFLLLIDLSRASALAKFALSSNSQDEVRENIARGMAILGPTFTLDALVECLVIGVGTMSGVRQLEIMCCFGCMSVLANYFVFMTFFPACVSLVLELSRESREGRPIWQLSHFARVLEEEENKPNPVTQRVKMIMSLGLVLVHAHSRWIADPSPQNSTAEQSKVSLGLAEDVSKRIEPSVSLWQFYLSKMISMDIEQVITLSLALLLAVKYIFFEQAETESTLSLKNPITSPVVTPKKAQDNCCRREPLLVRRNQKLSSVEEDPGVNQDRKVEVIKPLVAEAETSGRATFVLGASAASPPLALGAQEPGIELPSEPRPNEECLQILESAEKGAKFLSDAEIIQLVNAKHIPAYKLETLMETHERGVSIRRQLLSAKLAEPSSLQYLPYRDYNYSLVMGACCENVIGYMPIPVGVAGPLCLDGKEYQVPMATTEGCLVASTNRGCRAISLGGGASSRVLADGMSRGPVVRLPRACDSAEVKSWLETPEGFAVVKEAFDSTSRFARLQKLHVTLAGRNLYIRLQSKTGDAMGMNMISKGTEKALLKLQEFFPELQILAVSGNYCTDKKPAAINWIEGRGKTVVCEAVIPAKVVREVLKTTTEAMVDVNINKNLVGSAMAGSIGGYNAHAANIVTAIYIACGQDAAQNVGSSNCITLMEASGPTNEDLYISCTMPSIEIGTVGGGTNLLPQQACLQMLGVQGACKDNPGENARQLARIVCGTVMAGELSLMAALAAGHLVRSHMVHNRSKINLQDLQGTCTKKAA

[2] = biological target: T2, 3-hydroxy-3-methylglutaryl-coenzyme A reductase (Homo sapiens) (UniProt P04035); test: In vitro HMG-CoA reductase inhibitory activity required to inhibit cellular steroidgenesis in Hep G2 cells (human hepatoma cell line) with pravastatin as reference compound; type: cell-based; details: HepG2
T2 sequence (whole entry): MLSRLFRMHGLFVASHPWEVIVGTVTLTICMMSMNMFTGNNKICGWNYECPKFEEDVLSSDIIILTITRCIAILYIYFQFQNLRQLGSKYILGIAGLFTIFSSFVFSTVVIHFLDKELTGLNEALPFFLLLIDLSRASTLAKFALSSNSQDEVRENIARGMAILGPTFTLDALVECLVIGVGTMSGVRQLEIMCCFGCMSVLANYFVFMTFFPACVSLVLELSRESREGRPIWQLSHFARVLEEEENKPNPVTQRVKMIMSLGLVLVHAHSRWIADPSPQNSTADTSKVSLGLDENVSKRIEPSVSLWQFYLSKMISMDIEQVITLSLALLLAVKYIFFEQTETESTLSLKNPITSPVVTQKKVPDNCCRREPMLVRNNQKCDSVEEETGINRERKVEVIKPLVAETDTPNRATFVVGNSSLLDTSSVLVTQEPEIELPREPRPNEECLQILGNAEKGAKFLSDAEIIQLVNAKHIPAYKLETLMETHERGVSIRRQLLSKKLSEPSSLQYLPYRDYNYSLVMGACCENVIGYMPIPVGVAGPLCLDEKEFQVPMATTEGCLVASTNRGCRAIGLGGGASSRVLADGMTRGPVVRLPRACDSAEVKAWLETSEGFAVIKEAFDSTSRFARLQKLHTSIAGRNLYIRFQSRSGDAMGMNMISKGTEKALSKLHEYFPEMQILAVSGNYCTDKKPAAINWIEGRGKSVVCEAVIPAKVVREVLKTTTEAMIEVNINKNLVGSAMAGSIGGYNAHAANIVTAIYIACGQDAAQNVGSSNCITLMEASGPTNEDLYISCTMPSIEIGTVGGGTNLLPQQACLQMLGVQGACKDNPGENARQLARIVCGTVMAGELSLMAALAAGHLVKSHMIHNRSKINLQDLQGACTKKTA

[3] = biological target: T1, 3-hydroxy-3-methylglutaryl-coenzyme A reductase (Rattus norvegicus); test: In vivo hepatic cholesterol synthesis inhibitory activity in male Sprague-Dawley rat after oral administration at a concentration of 2.0 mg/kg; type: functional, organism-based; set-up: dose 2 mg/kg
[4] = biological target: T1, 3-hydroxy-3-methylglutaryl-coenzyme A reductase (Rattus norvegicus); test: In vivo hepatic cholesterol synthesis inhibitory activity in male Sprague-Dawley rat after oral administration at a concentration of 0.2 mg/kg; type: functional, organism-based; set-up: dose 0.2 mg/kg

Row | Relative potency [1] | Relative potency [2] | inhibition [3] [%] | inhibition [4] [%] | SMILES
1 | 48 | 19 |  |  | CC(C)c1nc2sc3c(c2c(-c2ccc(F)cc2)c1/C=C/[C@@H](O)C[C@@H](O)CC(=O)O)CCCC3
2 | 12 | 3 | 24.1 | -1.4 | CC(C)c1nc2cc(-c3ccccc3)nn2c(-c2ccc(F)cc2)c1/C=C/[C@@H](O)C[C@@H](O)CC(=O)O
3 | 228 | 118 | 74.3 | 35.5 | Cc1nn(C)c2nc(C3CC3)c(/C=C/[C@@H](O)C[C@@H](O)CC(=O)O)c(-c3ccc(F)cc3)c12
4 | 24 | 2 | 6.5 |  | Cc1cc2nc(C3CC3)c(/C=C/[C@@H](O)C[C@@H](O)CC(=O)O)c(-c3ccc(F)cc3)n2n1
5 | 35 | 51 | 20.8 | 7.9 | CCc1c(C)sc2nc(C(C)C)c(/C=C/[C@@H](O)C[C@@H](O)CC(=O)O)c(-c3ccc(F)cc3)c12
6 | 100 | 31 | 86 | 51.8 | Cc1nn(C(C)(C)C)c2nc(C(C)C)c(/C=C/[C@@H](O)C[C@@H](O)CC(=O)O)c(-c3ccc(F)cc3)c12
7 | 52 | 62 |  |  | CC(C)c1cc2c(-c3ccc(F)cc3)c(/C=C/[C@@H](O)C[C@@H](O)CC(=O)O)c(C(C)C)nc2s1
8 | 42 | 1 | 71.3 | 42.9 | CC(C)c1nc2c(c(C3CC3)nn2C)c(-c2ccc(F)cc2)c1/C=C/[C@@H](O)C[C@@H](O)CC(=O)O
9 | 63 | 60 |  |  | O=C(O)C[C@H](O)C[C@H](O)/C=C/c1c(C2CC2)nc2sc3c(c2c1-c1ccc(F)cc1)CCC3
10 | 162 | 12 |  |  | Cc1c2c(-c3ccc(F)cc3)c(/C=C/[C@@H](O)C[C@@H](O)CC(=O)O)c(C(C)C)nc2nn1-c1ccccc1
11 | 63 | 17 | 45.1 | 16.4 | Cc1nn(Cc2ccccc2)c2nc(C(C)C)c(/C=C/[C@@H](O)C[C@@H](O)CC(=O)O)c(-c3ccc(F)cc3)c12
12 | 65 | 38 |  |  | CCc1c(C)sc2nc(C3CC3)c(/C=C/[C@@H](O)C[C@@H](O)CC(=O)O)c(-c3ccc(F)cc3)c12
13 | 71 | 15 | 48.1 | 41.1 | Cc1nn(C)c2nc(C(C)C)c(/C=C/[C@@H](O)C[C@@H](O)CC(=O)O)c(-c3ccc(F)cc3)c12
14 | 1 | < 1 |  |  | Cc1sc2nc(C(C)C)c(/C=C/[C@@H](O)C[C@@H](O)CC(=O)O)c(-c3ccc(F)cc3)c2c1-c1ccccc1
15 | 83 | 1 | 52.3 | 33.7 | CC(C)c1nc2onc(-c3ccccc3)c2c(-c2ccc(F)cc2)c1/C=C/[C@@H](O)C[C@@H](O)CC(=O)O
16 | 154 | 149 | 48.7 |  | COc1ccc(-n2nc(C)c3c(-c4ccc(F)cc4)c(/C=C/[C@@H](O)C[C@@H](O)CC(=O)O)c(C(C)C)nc32)cc1
17 | 229 | 60 | 70.6 | 38.1 | O=C(O)C[C@H](O)C[C@H](O)/C=C/c1c(C2CC2)nc2sccc2c1-c1ccc(F)cc1
18 | 21 | 6 | 71.1 | 37 | CC(C)c1nc2c(c(-c3ccccc3)nn2C)c(-c2ccc(F)cc2)c1/C=C/[C@@H](O)C[C@@H](O)CC(=O)O
19 | 27 | 3 |  | -6.1 | Cc1cc2nc(C(C)C)c(/C=C/[C@@H](O)C[C@@H](O)CC(=O)O)c(-c3ccc(F)cc3)n2n1

Row | Relative potency [1] | Relative potency [2] | inhibition [3] [%] | inhibition [4] [%] | SMILES
20 | 229 | 4 |  |  | Cc1nn(-c2ccccn2)c2nc(C3CC3)c(/C=C/[C@@H](O)C[C@@H](O)CC(=O)O)c(-c3ccc(F)cc3)c12
21 | 170 | 1 |  |  | Cc1noc2nc(C(C)C)c(/C=C/[C@@H](O)C[C@@H](O)CC(=O)O)c(-c3ccc(F)cc3)c12
22 | 55 | 7 |  |  | CC(C)c1nc2c(c(C3CC3)nn2-c2ccccc2)c(-c2ccc(F)cc2)c1/C=C/[C@@H](O)C[C@@H](O)CC(=O)O
23 | 25 | 3 |  |  | Cc1nn2c(-c3ccc(F)cc3)c(/C=C/[C@@H](O)C[C@@H](O)CC(=O)O)c(C3CC3)nc2c1C
24 | 58 | 49 |  |  | CC(C)c1nc2sc3c(c2c(-c2ccc(F)cc2)c1/C=C/[C@@H](O)C[C@@H](O)CC(=O)O)CCC3
25 | 68 | 22 | 34.2 |  | Cc1cc2c(-c3ccc(F)cc3)c(/C=C/[C@@H](O)C[C@@H](O)CC(=O)O)c(C(C)C)nc2s1
26 | 13 | < 1 |  |  | CC(C)c1nc2cc(-c3ccco3)nn2c(-c2ccc(F)cc2)c1/C=C/[C@@H](O)C[C@@H](O)CC(=O)O
27 | 300 | 14 | 11.5 |  | Cn1nc(-c2ccccc2)c2c(-c3ccc(F)cc3)c(/C=C/[C@@H](O)C[C@@H](O)CC(=O)O)c(C3CC3)nc21
28 | 4 | < 1 |  |  | CC(C)c1nc2cc(C(C)(C)C)nn2c(-c2ccc(F)cc2)c1/C=C/[C@@H](O)C[C@@H](O)CC(=O)O
29 | 75 | < 1 |  |  | CC(C)(C)n1nc(-c2ccccc2)c2c(-c3ccc(F)cc3)c(/C=C/[C@@H](O)C[C@@H](O)CC(=O)O)c(C3CC3)nc21
30 | 23 | 2 |  |  | O=C(O)C[C@H](O)C[C@H](O)/C=C/c1c(C2CC2)nc2sc3c(c2c1-c1ccc(F)cc1)CCCCC3
31 | 64 | 3 |  |  | Cc1nn2c(-c3ccc(F)cc3)c(/C=C/[C@@H](O)C[C@@H](O)CC(=O)O)c(C3CC3)nc2c1-c1ccccc1
32 | 30 | 1 |  |  | CC(C)c1nc2c3c(nn2c(-c2ccc(F)cc2)c1/C=C/[C@@H](O)C[C@@H](O)CC(=O)O)CCCC3
33 | 93 | 26 |  |  | CC(C)c1nc2c(c(-c3ccc(Cl)cc3)nn2C)c(-c2ccc(F)cc2)c1/C=C/[C@@H](O)C[C@@H](O)CC(=O)O
34 | < 1 | 1 |  |  | CC(C)c1nc2sc(-c3ccccc3)cc2c(-c2ccc(F)cc2)c1/C=C/[C@@H](O)C[C@@H](O)CC(=O)O
35 | 98 | 2 |  |  | CC(C)(C)n1nc(C2CC2)c2c(-c3ccc(F)cc3)c(/C=C/[C@@H](O)C[C@@H](O)CC(=O)O)c(C3CC3)nc21
36 | 6 | 1 |  | 21.8 | CC(C)c1cc2nc(C3CC3)c(/C=C/[C@@H](O)C[C@@H](O)CC(=O)O)c(-c3ccc(F)cc3)n2n1
37 | 228 | 10 |  |  | CC(C)c1nc2c(cnn2-c2ccccc2)c(-c2ccc(F)cc2)c1/C=C/[C@@H](O)C[C@@H](O)CC(=O)O
38 | 71 | 39 |  |  | CCn1ncc2c(-c3ccc(F)cc3)c(/C=C/[C@@H](O)C[C@@H](O)CC(=O)O)c(C(C)C)nc21
